{"source": "the supplement of paper PMC8671470", "note": "Structures can show the parent of a compound that is named as a salt.", "data": [{"tested_on": "HL-60", "assay": "cell viability (% survival relative to DMSO control); higher = less cytotoxic", "settings": "drug1 concentration 50 nM; drug2 concentration 100 nM; 72 h", "experimental": "(§1)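 8x8 drug-combination matrices (0-5000 nM; rosiglitazone and lestaurtinib 0-1000 nM) were run in HL-60 cells for 72 h with a CellTiter-Glo read-out. Survival is normalised to DMSO and 10 µM bortezomib and clipped at 100%. Bliss synergy was analysed in SynergyFinder.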", "units": {"cell viability": "%"}, "values": [{"smiles": "CN(CCOc1ccc(Cc2sc(O)nc2O)cc1)c1ccccn1", "note": "[Rosiglitazone] + c1cc(-c2cnn3cc(-c4ccc(OCCN5CCCCC5)cc4)cnc23)ccn1 [Dorsomorphin]", "cell viability": "> 100"}]}, {"tested_on": "HL-60", "assay": "cell viability (% survival relative to DMSO control); higher = less cytotoxic", "settings": "drug1 concentration 50 nM; drug2 concentration 500 nM; 72 h", "experimental": "as §1", "units": {"cell viability": "%"}, "values": [{"smiles": "O=C(O)CC[N+](=O)[O-]", "note": "[3-nitropropionic acid] + CCn1c(=Cc2cccc[n+]2CC)sc(=C2Sc3ccccc3N2C)c1=O [MKT 077]", "cell viability": "> 100"}, {"smiles": "CCn1c(=Cc2cccc[n+]2CC)sc(=C2Sc3ccccc3N2C)c1=O", "note": "[MKT 077] + CN(C)CCNC(=O)c1cccn2c(=O)c3cc4ccccc4cc3nc12 [Bmh-21]", "cell viability": 40.5}, {"smiles": "CN(CCOc1ccc(Cc2sc(O)nc2O)cc1)c1ccccn1", "note": "[Rosiglitazone] + CC(C)(Cc1ccccc1)NCC(O)c1ccc(O)c(NS(C)(=O)=O)c1 [Zinterol hydrochloride]", "cell viability": 95.3}, {"smiles": "CN(CCOc1ccc(Cc2sc(O)nc2O)cc1)c1ccccn1", "note": "[Rosiglitazone] + c1cc(-c2cnn3cc(-c4ccc(OCCN5CCCCC5)cc4)cnc23)ccn1 [Dorsomorphin]", "cell viability": "> 100"}]}, {"tested_on": "HL-60", "assay": "cell viability (% survival relative to DMSO control); higher = less cytotoxic", "settings": "drug1 concentration 50 nM; drug2 concentration 1000 nM; 72 h", "experimental": "as §1", "units": {"cell viability": "%"}, "values": [{"smiles": "O=C(O)CC[N+](=O)[O-]", "note": "[3-nitropropionic acid] + CCn1c(=Cc2cccc[n+]2CC)sc(=C2Sc3ccccc3N2C)c1=O [MKT 077]", "cell viability": "> 100"}, {"smiles": "CCn1c(=Cc2cccc[n+]2CC)sc(=C2Sc3ccccc3N2C)c1=O", "note": "[MKT 077] + CN(C)CCNC(=O)c1cccn2c(=O)c3cc4ccccc4cc3nc12 [Bmh-21]", "cell viability": 48.1}, {"smiles": "CN(CCOc1ccc(Cc2sc(O)nc2O)cc1)c1ccccn1", "note": "[Rosiglitazone] + CC(C)(Cc1ccccc1)NCC(O)c1ccc(O)c(NS(C)(=O)=O)c1 [Zinterol hydrochloride]", "cell viability": "> 100"}, {"smiles": "CN(CCOc1ccc(Cc2sc(O)nc2O)cc1)c1ccccn1", "note": "[Rosiglitazone] + c1cc(-c2cnn3cc(-c4ccc(OCCN5CCCCC5)cc4)cnc23)ccn1 [Dorsomorphin]", "cell viability": "> 100"}]}, {"tested_on": "HL-60", "assay": "cell viability (% survival relative to DMSO control); higher = less cytotoxic", "settings": "drug1 concentration 50 nM; drug2 concentration 5000 nM; 72 h", "experimental": "as §1", "units": {"cell viability": "%"}, "values": [{"smiles": "O=C(O)CC[N+](=O)[O-]", "note": "[3-nitropropionic acid] + CCn1c(=Cc2cccc[n+]2CC)sc(=C2Sc3ccccc3N2C)c1=O [MKT 077]", "cell viability": "> 100"}, {"smiles": "CCn1c(=Cc2cccc[n+]2CC)sc(=C2Sc3ccccc3N2C)c1=O", "note": "[MKT 077] + CN(C)CCNC(=O)c1cccn2c(=O)c3cc4ccccc4cc3nc12 [Bmh-21]", "cell viability": -2.48}, {"smiles": "CN(CCOc1ccc(Cc2sc(O)nc2O)cc1)c1ccccn1", "note": "[Rosiglitazone] + CC(C)(Cc1ccccc1)NCC(O)c1ccc(O)c(NS(C)(=O)=O)c1 [Zinterol hydrochloride]", "cell viability": "> 100"}, {"smiles": "CN(CCOc1ccc(Cc2sc(O)nc2O)cc1)c1ccccn1", "note": "[Rosiglitazone] + c1cc(-c2cnn3cc(-c4ccc(OCCN5CCCCC5)cc4)cnc23)ccn1 [Dorsomorphin]", "cell viability": 24.4}]}, {"tested_on": "HL-60", "assay": "cell viability (% survival relative to DMSO control); higher = less cytotoxic", "settings": "drug1 concentration 100 nM; drug2 concentration 5 nM; 72 h", "experimental": "as §1", "units": {"cell viability": "%"}, "values": [{"smiles": "O=C(O)CC[N+](=O)[O-]", "note": "[3-nitropropionic acid] + CCn1c(=Cc2cccc[n+]2CC)sc(=C2Sc3ccccc3N2C)c1=O [MKT 077]", "cell viability": "> 100"}, {"smiles": "CCn1c(=Cc2cccc[n+]2CC)sc(=C2Sc3ccccc3N2C)c1=O", "note": "[MKT 077] + CN(C)CCNC(=O)c1cccn2c(=O)c3cc4ccccc4cc3nc12 [Bmh-21]", "cell viability": "> 100"}, {"smiles": "CN(CCOc1ccc(Cc2sc(O)nc2O)cc1)c1ccccn1", "note": "[Rosiglitazone] + CC(C)(Cc1ccccc1)NCC(O)c1ccc(O)c(NS(C)(=O)=O)c1 [Zinterol hydrochloride]", "cell viability": "> 100"}, {"smiles": "CN(CCOc1ccc(Cc2sc(O)nc2O)cc1)c1ccccn1", "note": "[Rosiglitazone] + c1cc(-c2cnn3cc(-c4ccc(OCCN5CCCCC5)cc4)cnc23)ccn1 [Dorsomorphin]", "cell viability": "> 100"}]}, {"tested_on": "HL-60", "assay": "cell viability (% survival relative to DMSO control); higher = less cytotoxic", "settings": "drug1 concentration 100 nM; drug2 concentration 10 nM; 72 h", "experimental": "as §1", "units": {"cell viability": "%"}, "values": [{"smiles": "O=C(O)CC[N+](=O)[O-]", "note": "[3-nitropropionic acid] + CCn1c(=Cc2cccc[n+]2CC)sc(=C2Sc3ccccc3N2C)c1=O [MKT 077]", "cell viability": "> 100"}, {"smiles": "CCn1c(=Cc2cccc[n+]2CC)sc(=C2Sc3ccccc3N2C)c1=O", "note": "[MKT 077] + CN(C)CCNC(=O)c1cccn2c(=O)c3cc4ccccc4cc3nc12 [Bmh-21]", "cell viability": "> 100"}, {"smiles": "CN(CCOc1ccc(Cc2sc(O)nc2O)cc1)c1ccccn1", "note": "[Rosiglitazone] + CC(C)(Cc1ccccc1)NCC(O)c1ccc(O)c(NS(C)(=O)=O)c1 [Zinterol hydrochloride]", "cell viability": 62.7}, {"smiles": "CN(CCOc1ccc(Cc2sc(O)nc2O)cc1)c1ccccn1", "note": "[Rosiglitazone] + c1cc(-c2cnn3cc(-c4ccc(OCCN5CCCCC5)cc4)cnc23)ccn1 [Dorsomorphin]", "cell viability": "> 100"}]}, {"tested_on": "HL-60", "assay": "cell viability (% survival relative to DMSO control); higher = less cytotoxic", "settings": "drug1 concentration 100 nM; drug2 concentration 50 nM; 72 h", "experimental": "as §1", "units": {"cell viability": "%"}, "values": [{"smiles": "O=C(O)CC[N+](=O)[O-]", "note": "[3-nitropropionic acid] + CCn1c(=Cc2cccc[n+]2CC)sc(=C2Sc3ccccc3N2C)c1=O [MKT 077]", "cell viability": 98.3}, {"smiles": "CCn1c(=Cc2cccc[n+]2CC)sc(=C2Sc3ccccc3N2C)c1=O", "note": "[MKT 077] + CN(C)CCNC(=O)c1cccn2c(=O)c3cc4ccccc4cc3nc12 [Bmh-21]", "cell viability": "> 100"}, {"smiles": "CN(CCOc1ccc(Cc2sc(O)nc2O)cc1)c1ccccn1", "note": "[Rosiglitazone] + CC(C)(Cc1ccccc1)NCC(O)c1ccc(O)c(NS(C)(=O)=O)c1 [Zinterol hydrochloride]", "cell viability": 58.8}, {"smiles": "CN(CCOc1ccc(Cc2sc(O)nc2O)cc1)c1ccccn1", "note": "[Rosiglitazone] + c1cc(-c2cnn3cc(-c4ccc(OCCN5CCCCC5)cc4)cnc23)ccn1 [Dorsomorphin]", "cell viability": 81.2}]}, {"tested_on": "HL-60", "assay": "cell viability (% survival relative to DMSO control); higher = less cytotoxic", "settings": "drug1 concentration 100 nM; drug2 concentration 100 nM; 72 h", "experimental": "as §1", "units": {"cell viability": "%"}, "values": [{"smiles": "O=C(O)CC[N+](=O)[O-]", "note": "[3-nitropropionic acid] + CCn1c(=Cc2cccc[n+]2CC)sc(=C2Sc3ccccc3N2C)c1=O [MKT 077]", "cell viability": "> 100"}, {"smiles": "CCn1c(=Cc2cccc[n+]2CC)sc(=C2Sc3ccccc3N2C)c1=O", "note": "[MKT 077] + CN(C)CCNC(=O)c1cccn2c(=O)c3cc4ccccc4cc3nc12 [Bmh-21]", "cell viability": "> 100"}, {"smiles": "CN(CCOc1ccc(Cc2sc(O)nc2O)cc1)c1ccccn1", "note": "[Rosiglitazone] + CC(C)(Cc1ccccc1)NCC(O)c1ccc(O)c(NS(C)(=O)=O)c1 [Zinterol hydrochloride]", "cell viability": 80.5}, {"smiles": "CN(CCOc1ccc(Cc2sc(O)nc2O)cc1)c1ccccn1", "note": "[Rosiglitazone] + c1cc(-c2cnn3cc(-c4ccc(OCCN5CCCCC5)cc4)cnc23)ccn1 [Dorsomorphin]", "cell viability": "> 100"}]}, {"tested_on": "HL-60", "assay": "cell viability (% survival relative to DMSO control); higher = less cytotoxic", "settings": "drug1 concentration 100 nM; drug2 concentration 500 nM; 72 h", "experimental": "as §1", "units": {"cell viability": "%"}, "values": [{"smiles": "O=C(O)CC[N+](=O)[O-]", "note": "[3-nitropropionic acid] + CCn1c(=Cc2cccc[n+]2CC)sc(=C2Sc3ccccc3N2C)c1=O [MKT 077]", "cell viability": "> 100"}, {"smiles": "CCn1c(=Cc2cccc[n+]2CC)sc(=C2Sc3ccccc3N2C)c1=O", "note": "[MKT 077] + CN(C)CCNC(=O)c1cccn2c(=O)c3cc4ccccc4cc3nc12 [Bmh-21]", "cell viability": 44.1}, {"smiles": "CN(CCOc1ccc(Cc2sc(O)nc2O)cc1)c1ccccn1", "note": "[Rosiglitazone] + CC(C)(Cc1ccccc1)NCC(O)c1ccc(O)c(NS(C)(=O)=O)c1 [Zinterol hydrochloride]", "cell viability": "> 100"}, {"smiles": "CN(CCOc1ccc(Cc2sc(O)nc2O)cc1)c1ccccn1", "note": "[Rosiglitazone] + c1cc(-c2cnn3cc(-c4ccc(OCCN5CCCCC5)cc4)cnc23)ccn1 [Dorsomorphin]", "cell viability": "> 100"}]}, {"tested_on": "HL-60", "assay": "cell viability (% survival relative to DMSO control); higher = less cytotoxic", "settings": "drug1 concentration 100 nM; drug2 concentration 1000 nM; 72 h", "experimental": "as §1", "units": {"cell viability": "%"}, "values": [{"smiles": "O=C(O)CC[N+](=O)[O-]", "note": "[3-nitropropionic acid] + CCn1c(=Cc2cccc[n+]2CC)sc(=C2Sc3ccccc3N2C)c1=O [MKT 077]", "cell viability": "> 100"}, {"smiles": "CCn1c(=Cc2cccc[n+]2CC)sc(=C2Sc3ccccc3N2C)c1=O", "note": "[MKT 077] + CN(C)CCNC(=O)c1cccn2c(=O)c3cc4ccccc4cc3nc12 [Bmh-21]", "cell viability": 66.9}, {"smiles": "CN(CCOc1ccc(Cc2sc(O)nc2O)cc1)c1ccccn1", "note": "[Rosiglitazone] + CC(C)(Cc1ccccc1)NCC(O)c1ccc(O)c(NS(C)(=O)=O)c1 [Zinterol hydrochloride]", "cell viability": "> 100"}, {"smiles": "CN(CCOc1ccc(Cc2sc(O)nc2O)cc1)c1ccccn1", "note": "[Rosiglitazone] + c1cc(-c2cnn3cc(-c4ccc(OCCN5CCCCC5)cc4)cnc23)ccn1 [Dorsomorphin]", "cell viability": 86.7}]}]}
